The values below come from patent publication US8691761B2, “Somatostatin receptor 2 antagonists” (priority 2006, dated 2014).

Where “and” joins values, the source holds several entries; their conditions need not be identical. Equal values may be shown once. Entries after “also recorded” stand apart in the source; their conditions may differ. Read-outs that look alike come from different tables or passages of the source. Bridge positions count the residues as written; N and C are the ends. Square brackets hold non-standard residues; d marks the D form. Peptide text beside a SMILES is read from it. * marks the point of attachment. ξ: configuration not given here. DOTA = O=C(O)CN1CCN(CC(=O)O)CCN(CC(=O)*)CCN(CC(=O)O)CC1; Phe(4-NO2) = N[C@@H](Cc1ccc([N+](=O)[O-])cc1)C(=O)O; dPhe(4-NHCONH2) = NC(=O)Nc1ccc(C[C@@H](N)C(=O)O)cc1; Phe(4-Cl) = N[C@@H](Cc1ccc(Cl)cc1)C(=O)O; ξDihydroorotoyl = O=C1CC(C(=O)*)NC(=O)N1; 2Nal = N[C@@H](Cc1ccc2ccccc2c1)C(=O)O; ξPhe(4-NH2) = Nc1ccc(CC(N)C(=O)O)cc1

One data set has as its target T1, hSSTR1 (Homo sapiens, UniProt P30872).
T1 construct: expressed in transfected cells; host or cells: CHO-K1 or CCL39 cells
The data set can be described thus: Receptor autoradiography, displacement of 125I-[Leu8,D-Trp22,Tyr25]-SRIF-28 from membrane pellet sections. It is filed as binding. A general note: In a radioligand displacement assay an active substance lowers the binding of a labelled ligand.

The next data set concerns the target T2, hSSTR2 (Homo sapiens, UniProt P30874).
T2 construct: expressed in transfected cells; host or cells: CHO-K1 or CCL39 cells
The data set is described as above. It is filed as binding.

The next data set concerns the target T3, hSSTR3 (Homo sapiens, UniProt P32745).
T3 construct: expressed in transfected cells; host or cells: CHO-K1 or CCL39 cells
Described as above. It is filed as binding.

The next data set addresses T4, hSSTR4 (Homo sapiens, UniProt P31391).
T4 construct: expressed in transfected cells; host or cells: CHO-K1 or CCL39 cells
Described as above. It is filed as binding.

In the next data set the target is T5, hSSTR5 (Homo sapiens, UniProt P35346).
T5 construct: expressed in transfected cells; host or cells: CHO-K1 or CCL39 cells
T5 sequence (P35346 whole entry): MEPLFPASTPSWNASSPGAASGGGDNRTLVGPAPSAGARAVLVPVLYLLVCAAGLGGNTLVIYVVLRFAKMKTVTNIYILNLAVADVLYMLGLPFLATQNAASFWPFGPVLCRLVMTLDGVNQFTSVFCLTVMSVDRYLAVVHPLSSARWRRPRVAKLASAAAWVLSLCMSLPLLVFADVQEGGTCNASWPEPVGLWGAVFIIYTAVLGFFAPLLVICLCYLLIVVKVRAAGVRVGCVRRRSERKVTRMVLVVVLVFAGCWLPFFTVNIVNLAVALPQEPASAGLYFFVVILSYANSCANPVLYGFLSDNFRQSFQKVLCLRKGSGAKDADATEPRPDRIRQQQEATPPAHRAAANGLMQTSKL
The description is as above. It is filed as binding.

A further data set has as its target T6, human sst2A receptor (Homo sapiens, UniProt P30874).
T6 construct: expressed in transfected cells; host or cells: HEK293 (HEK-sst2)
The data set can be described thus: Immunofluorescence-based sst2 internalization assay in HEK-sst2 cells. To be noted: n ≧ 2. It is filed as cell-based. The method, then:
Immunofluorescence-based sst2 Internalization Assay. Immunofluorescence microscopy-based internalization assay for sst2 was performed with HEK-sst2 using the sst2-specific antibody R2-88 as described elsewhere herein. HEK-sst2 cells were treated either with vehicle alone, the sst2 agonist [Tyr^3]-octreotide at a concentration of 100 nM, [Tyr^3]-octreotide at a concentration of 100 nM in the presence of an excess of the SRIF analogues to be tested (100 times the concentration of [Tyr^3]-octreotide), or with the SRIF analogues to be tested alone at a concentration of 10 μM, and then processed for immunofluorescence microscopy as described previously.

The test system of data set [1] is HEK-sst2 tumors. To be noted: mouse, in vivo.
Experimental: (§1) The following protocol was used to determine biodistribution
(§2) Confirmation that the transfected tumors were indeed expressing solely sst2 was obtained in resected tumor samples tested in vitro with somatostatin receptor autoradiography using subtype selective ligands.
(§3) The biodistribution of was studied at 4 h or 24 h after injection. The organs of interest were collected, blotted dry, weighed, their radioactivity measured and the percentage of injected activity per gram (% IA/g) calculated.
The target of the next data set is sst2 (Homo sapiens, UniProt P30874). The data set can be described thus: Calcium release assay in HEK-sst2 cells (Fluo-4NW). To be noted: n ≧ 2. Details: expressed in transfected cells; host or cells: HEK293 (HEK-sst2). It is filed as cell-based. How it is done:
Calcium release assay. Intracellular calcium release was measured in HEK-sst2 using the Fluo-4NW Calcium Assay kit as described previously (Magrys, et al. “The role of anti-alpha-enolase autoantibodies in pathogenicity of autoimmune-mediated retinopathy.” J. Clin. Immunol. 2007, 27, 181-192; Michel et al. “The Nef protein of human immunodeficiency virus is a broad-spectrum modulator of chemokine receptor cell surface levels that acts independently of classical motifs for receptor endocytosis and Galphai signaling.” Mol. Biol. Cell. 2006, 17, 3578-3590). In brief, HEK-sst2 cells were seeded (25,000 cells per well) in poly-D-lysine (20 μg/mL) coated 96 well plates and cultured for 1 day at 37° C. and 5% CO2 in culture medium. At the day of the experiment, the cells were washed with assay buffer (1×HBSS, 20 mM HEPES) containing 2.5 mM probenecid, and then loaded with 100 μL/well Fluo-4NW dye in assay buffer containing 2.5 mM probenecid for 30 min at 37° C. and 5% CO2 and then for further 30 min at room temperature. To measure the intracellular calcium mobilization after stimulation with the SRIF analogues to be tested, the dye-loaded cells were transferred to a SpectraMax M2^e (Molecular Devices, Sunnyvale, Calif.). Intracellular calcium mobilization was recorded in a kinetic for 60 sec at room temperature monitoring fluorescence emission at 520 nm (with λex=485 nm) in the presence of the analogues at the concentrations indicated. Maximum fluorescence (Fmax) was measured after the addition of 25 μM ionomycin. Baseline (control) measurements were taken for dye-loaded, untreated cells. Data are shown as percentage of Fmax (% Fmax) as reported previously. (Magrys, et al. J. Clin. Immunol. 2007, 27, 181-192; Michel et al. Mol. Biol. Cell. 2006, 17, 3578-3590). All experiments were repeated at least three times in triplicate.

Data set [2] has as its system HEK-sst2 tumors. The data set can be described thus: In vivo biodistribution of radiolabeled peptides in nude mice bearing HEK-sst2 tumors. To be noted: mouse, in vivo.
Experimental: as §1, §2, §3
Another data set can be described thus: in vivo. To be noted: female, athymic nude, mouse, iv, total radioactivity, biodistribution.
Where [3] appears, read: Table 1, inhibition of radioligand binding to cloned human receptor, read-out: IC50 hSSTR1.
[4] abbreviates: Table 3, mean ± SEM when N ≧ 3, read-out: sst1 binding affinity (IC50).
[5] abbreviates: Table 1, inhibition of radioligand binding to cloned human receptor, read-out: IC50 hSSTR2.
The mark [6] stands for this setting: Table 3, mean ± SEM when N ≧ 3, read-out: sst2 binding affinity (IC50).
Where [7] appears, read: Table 1, inhibition of radioligand binding to cloned human receptor, read-out: IC50 hSSTR3.
Setting [8] is: Table 3, mean ± SEM when N ≧ 3, read-out: sst3 binding affinity (IC50).
The mark [9] stands for this setting: Table 1, inhibition of radioligand binding to cloned human receptor, read-out: IC50 hSSTR4.
[10] abbreviates: Table 3, mean ± SEM when N ≧ 3, read-out: sst4 binding affinity (IC50).
Where [11] appears, read: Table 1, inhibition of radioligand binding to cloned human receptor, read-out: IC50 hSSTR5.
Where [12] appears, read: Table 3, mean ± SEM when N ≧ 3, read-out: sst5 binding affinity (IC50).

T3 sequence (P32745 whole entry): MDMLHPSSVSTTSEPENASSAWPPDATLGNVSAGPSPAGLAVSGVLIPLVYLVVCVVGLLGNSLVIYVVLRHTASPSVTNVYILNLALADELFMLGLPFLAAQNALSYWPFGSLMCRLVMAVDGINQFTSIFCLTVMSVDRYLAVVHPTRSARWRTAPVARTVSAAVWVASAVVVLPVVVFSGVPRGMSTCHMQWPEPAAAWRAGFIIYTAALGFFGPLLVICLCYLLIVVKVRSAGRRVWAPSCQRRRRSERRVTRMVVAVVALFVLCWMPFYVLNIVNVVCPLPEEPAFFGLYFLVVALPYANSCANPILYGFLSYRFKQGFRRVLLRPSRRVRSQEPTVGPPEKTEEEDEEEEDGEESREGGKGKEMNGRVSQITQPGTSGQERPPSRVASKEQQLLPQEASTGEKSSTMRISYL
T4 sequence (P31391 whole entry): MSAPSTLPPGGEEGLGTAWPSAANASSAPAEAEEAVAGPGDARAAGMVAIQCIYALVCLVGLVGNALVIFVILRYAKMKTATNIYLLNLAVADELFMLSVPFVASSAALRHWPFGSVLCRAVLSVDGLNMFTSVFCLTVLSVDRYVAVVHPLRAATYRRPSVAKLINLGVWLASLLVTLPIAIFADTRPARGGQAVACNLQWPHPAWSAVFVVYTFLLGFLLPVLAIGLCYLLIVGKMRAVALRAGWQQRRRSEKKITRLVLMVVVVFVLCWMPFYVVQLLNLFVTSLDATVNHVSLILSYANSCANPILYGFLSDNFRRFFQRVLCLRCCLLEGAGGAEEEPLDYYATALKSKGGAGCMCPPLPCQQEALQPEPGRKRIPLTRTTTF
T2 sequence (P30874 whole entry): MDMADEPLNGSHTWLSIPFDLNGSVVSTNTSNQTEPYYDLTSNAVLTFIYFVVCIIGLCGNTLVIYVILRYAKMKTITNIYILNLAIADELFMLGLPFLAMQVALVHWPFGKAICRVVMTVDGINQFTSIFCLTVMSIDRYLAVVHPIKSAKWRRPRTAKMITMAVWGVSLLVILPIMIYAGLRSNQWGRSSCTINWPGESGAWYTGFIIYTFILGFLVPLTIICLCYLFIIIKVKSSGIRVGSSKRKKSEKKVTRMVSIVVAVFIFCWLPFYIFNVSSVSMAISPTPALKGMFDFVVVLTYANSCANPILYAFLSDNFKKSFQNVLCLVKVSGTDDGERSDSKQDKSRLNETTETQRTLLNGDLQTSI
sst2, sequence (P30874 whole entry): as above
T6 sequence (P30874 whole entry): as above
T1 sequence (P30872 whole entry): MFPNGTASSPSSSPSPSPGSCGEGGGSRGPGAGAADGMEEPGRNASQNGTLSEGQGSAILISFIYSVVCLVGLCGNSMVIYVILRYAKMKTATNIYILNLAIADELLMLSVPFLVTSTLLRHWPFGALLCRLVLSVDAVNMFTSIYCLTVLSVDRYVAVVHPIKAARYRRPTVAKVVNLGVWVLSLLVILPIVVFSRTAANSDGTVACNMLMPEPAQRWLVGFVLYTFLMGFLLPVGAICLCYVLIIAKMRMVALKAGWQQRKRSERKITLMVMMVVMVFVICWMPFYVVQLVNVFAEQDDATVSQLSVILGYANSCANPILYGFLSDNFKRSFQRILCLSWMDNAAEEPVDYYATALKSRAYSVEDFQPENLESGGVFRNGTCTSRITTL

Regarding `C[C@@H](O)[C@@H]1NC(=O)[C@H](CCCCN)NC(=O)[C@@H](Cc2ccc(NC(N)=O)cc2)NC(=O)[C@H](Cc2ccc(O)cc2)NC(=O)[C@H](NC(=O)[C@H](Cc2ccc([N+](=O)[O-])cc2)NC(=O)CN2CCN(CC(=O)O)CCN(CC(=O)O)CCN(CC(=O)O)CC2)CSSC[C@@H](C(=O)N[C@H](Cc2ccc(O)cc2)C(N)=O)NC1=O` [Peptide No. 3, DOTA-pNO2Phe-c[DCys-Tyr-DAph(Cbm)-Lys-Thr-Cys]-DTyr-NH2] ({DOTA}-[Phe(4-NO2)][dC]Y[dPhe(4-NHCONH2)]KTC[dY]-NH2; disulfide 2-7), the half-maximal inhibitory concentration (IC50) (as a rule, the midpoint of a concentration-inhibition curve) on hSSTR1 (setting [3]) is over 1000 nM; at hSSTR1 (setting [4]) it was over 1000 nM; at hSSTR2 (setting [5]), 0.53 ± 0.06 nM; at hSSTR2 (setting [6]), 0.75 nM and < 1 nM; on hSSTR3 (setting [7]), over 1000 nM; on hSSTR3 (setting [8]) it was over 1000 nM. The half-maximal inhibitory concentration (IC50) on hSSTR4 (setting [9]), on hSSTR4 (setting [10]), on hSSTR5 (setting [11]) and on hSSTR5 (setting [12]) was over 1000 nM throughout. On hSSTR2, the “sst2 binding affinity relative to SRIF-28” value is recorded as “three to four-fold greater”. Further, the “sst2-internalization tested in vitro in HEK-sst2 cells (function)” value (from here on “sst2-internalization tested in vitro”) on human sst2A receptor was “antagonistic property; also recorded: Antagonist”. For the same molecule, the “tumor to kidney ratio (in words)” value with HEK-sst2 tumors [1] is listed as “excellent tumor to kidney ratio”. In addition, the “Calcium release tested in vitro in HEK-sst2 cells (function)” value (“Calcium release tested in vitro” for short) at sst2 is “Antagonist”.

In the case of `C[C@@H](O)[C@@H]1NC(=O)[C@H](CCCCN)NC(=O)[C@@H](Cc2ccc(NC(N)=O)cc2)NC(=O)[C@H](Cc2ccc(O)cc2)NC(=O)[C@H](NC(=O)[C@H](Cc2ccc([N+](=O)[O-])cc2)NC(=O)CN2CCN(CC(=O)O)CCN(CC(=O)O)CCN(CC(=O)O)CC2)CSSC[C@@H](C(=O)N[C@@H](Cc2ccc3ccccc3c2)C(N)=O)NC1=O` [Peptide No. 5, DOTA-pNO2Phe-c[DCys-Tyr-DAph(Cbm)-Lys-Thr-Cys]-2Nal-NH2] ({DOTA}-[Phe(4-NO2)][dC]Y[dPhe(4-NHCONH2)]KTC[2Nal]-NH2; disulfide 2-7), the IC50 was over 1000 nM on hSSTR1 (setting [3]); over 1000 nM at hSSTR1 (setting [4]); 1.5 nM on hSSTR2 (setting [5]); 1.3 nM at hSSTR2 (setting [6]); over 1000 nM at hSSTR3 (setting [7]); over 1000 nM at hSSTR3 (setting [8]). The IC50 on hSSTR4 (setting [9]), at hSSTR4 (setting [10]), at hSSTR5 (setting [11]) and on hSSTR5 (setting [12]) was over 1000 nM each time. In addition, the “sst2-internalization tested in vitro” value on human sst2A receptor is listed as “Antagonist”. For the same molecule, the “Calcium release tested in vitro” value on sst2 is recorded as “Antagonist”. Moreover, in the data set with HEK-sst2 tumors [2], the “tumor to kidney ratio (in words)” value is given as “excellent tumor to kidney ratio”.

With `C[C@@H](O)[C@@H]1NC(=O)[C@H](CCCCN)NC(=O)[C@@H](Cc2ccc(NC(N)=O)cc2)NC(=O)C(Cc2ccc(NC(=O)C3CC(=O)NC(=O)N3)cc2)NC(=O)[C@H](NC(=O)[C@H](Cc2ccc(Cl)cc2)NC(=O)CN2CCN(CC(=O)O)CCN(CC(=O)O)CCN(CC(=O)O)CC2)CSSC[C@@H](C(=O)N[C@@H](Cc2ccc3ccccc3c2)C(N)=O)NC1=O` (stereo partly drawn) [Peptide No. 30, DOTA-Cpa-c[DCys-Aph(Hor)-DAph(Cbm)-Lys-Thr-Cys]-2Nal-NH2] ({DOTA}-[Phe(4-Cl)][dC][ξPhe(4-NH2)](ξDihydroorotoyl)[dPhe(4-NHCONH2)]KTC[2Nal]-NH2; disulfide 2-7), the “sst2-internalization tested in vitro” value on human sst2A receptor is reported as “Antagonist”. The “Calcium release tested in vitro” value on sst2 is on record as “Antagonist”. In addition, the “tumor to kidney ratio (in words)” value with HEK-sst2 tumors [2] is given as “excellent tumor to kidney ratio”.

For `C[C@@H](O)[C@@H]1NC(=O)[C@H](CCCCN)NC(=O)[C@@H](Cc2ccc(NC(N)=O)cc2)NC(=O)C(Cc2ccc(NC(=O)C3CC(=O)NC(=O)N3)cc2)NC(=O)[C@H](NC(=O)[C@H](Cc2ccc(Cl)cc2)NC(=O)CN2CCN(CC(=O)O)CCN(CC(=O)O)CCN(CC(=O)O)CC2)CSSC[C@@H](C(=O)N[C@H](Cc2ccc(O)cc2)C(N)=O)NC1=O` (stereo partly drawn) [Peptide No. 31, DOTA-Cpa-c[DCys-Aph(Hor)-DAph(Cbm)-Lys-Thr-Cys]-DTyr-NH2] ({DOTA}-[Phe(4-Cl)][dC][ξPhe(4-NH2)](ξDihydroorotoyl)[dPhe(4-NHCONH2)]KTC[dY]-NH2; disulfide 2-7), at hSSTR2, the “sst2 binding affinity relative to SRIF-28” value was “three to four-fold greater”. Also, the “sst2-internalization tested in vitro” value on human sst2A receptor is given as “antagonistic property; also recorded: Antagonist”. Besides, the “tumor to kidney ratio (in words)” value in the data set on HEK-sst2 tumors [1] was “excellent tumor to kidney ratio”. In addition, on sst2, the “Calcium release tested in vitro” value was “Antagonist”.

With `C[C@@H](O)[C@@H]1NC(=O)[C@H](CCCCN)NC(=O)[C@@H](Cc2ccc(NC(N)=O)cc2)NC(=O)[C@H](Cc2ccc(O)cc2)NC(=O)[C@H](NC(=O)[C@H](Cc2ccc(Cl)cc2)NC(=O)CN2CCN(CC(=O)O)CCN(CC(=O)O)CCN(CC(=O)O)CC2)CSSC[C@@H](C(=O)N[C@@H](Cc2ccc3ccccc3c2)C(N)=O)NC1=O` [^111In-labelled Peptide No. 28, metal not drawn] ({DOTA}-[Phe(4-Cl)][dC]Y[dPhe(4-NHCONH2)]KTC[2Nal]-NH2; disulfide 2-7), in the data set with HEK-sst2 tumors [1] (female, athymic nude, iv, 4 h), the “biodistribution, kidney” value is 6.95 % IA/g. The “biodistribution, spleen” value in the data set on HEK-sst2 tumors [1] (female, athymic nude, iv, 4 h) is reported as 0.36 % IA/g. In addition, the tissue uptake (commonly the share of the injected amount in each gram of the tissue) at 4 h amounted to 0.21 %ID/g in the data set “in vivo” (adrenal); 0.19 %ID/g in “in vivo” (blood); 0.16 %ID/g in “in vivo” (bone); 0.12 %ID/g in the data set “in vivo” (heart); 0.88 %ID/g in “in vivo” (liver); 0.06 %ID/g in the data set “in vivo” (muscle). The tissue uptake at 4 h is 2.41 %ID/g in the data set “in vivo” (pancreas), 0.21 %ID/g in “in vivo” (pituitary) and 2.36 %ID/g in “in vivo” (sst2 tumor).
